Data as given in PubChem BioAssay AID248 (DTP/NCI, 2004).
Values joined by “and” are separate entries in the source; they are usually repeats but may differ in a detail not shown here. Identical values can stand only once. Toxic doses and inconclusive results are not listed.

System: L1210 leukemia ip in BDF1 mice, survival T/C
Test: NCI In Vivo Anticancer Drug Screen. Data for tumor model L1210 Leukemia (intraperitoneal) in B6D2F1 (BDF1) mice
Settings: endpoint: mean survival time, higher = longer survival
Method in brief: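 Survival endpoint. Drug-treated group vs vehicle group, expressed as T divided by C. Tumor passaged by transplantation.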

[1] = dose: 100.0 mg/kg/injection, schedule: Q04DX003 (ip), vehicle: saline with Tween-80
[2] = dose: 200.0 mg/kg/injection, schedule: Q04DX003 (ip), vehicle: saline with Tween-80
[3] = dose: 400.0 mg/kg/injection, schedule: Q04DX003 (ip), vehicle: saline with Tween-80
[4] = dose: 100.0 mg/kg/injection, schedule: Q01DX001 (ip), vehicle: carboxymethylcellulose (CMC)
[5] = dose: 200.0 mg/kg/injection, schedule: Q01DX001 (ip), vehicle: carboxymethylcellulose (CMC)
[6] = dose: 400.0 mg/kg/injection, schedule: Q01DX001 (ip), vehicle: carboxymethylcellulose (CMC)
[7] = dose: 100.0 mg/kg/injection, schedule: Q04DX002 (ip), vehicle: Klucel (hydroxypropylcellulose) (HPC)
[8] = dose: 200.0 mg/kg/injection, schedule: Q04DX002 (ip), vehicle: Klucel (hydroxypropylcellulose) (HPC)
[9] = dose: 400.0 mg/kg/injection, schedule: Q04DX002 (ip), vehicle: Klucel (hydroxypropylcellulose) (HPC)
[10] = dose: 50.0 mg/kg/injection, schedule: Q01DX009 (ip), vehicle: Klucel (hydroxypropylcellulose) (HPC)
[11] = dose: 100.0 mg/kg/injection, schedule: Q01DX009 (ip), vehicle: Klucel (hydroxypropylcellulose) (HPC)
[12] = dose: 200.0 mg/kg/injection, schedule: Q01DX009 (ip), vehicle: Klucel (hydroxypropylcellulose) (HPC)

`COc1cc(-c2cnc(N)nc2N)cc(OC)c1OC` was tested, and the T/C [1] was 97 % of control, the T/C [2] was 103 % of control and the T/C [3] was 95 % of control.
For `CCC1(c2ccccc2)C(=O)N(CCl)C(=O)N(CCl)C1=O`, the T/C (dose: 100.0 mg/kg/injection, schedule: Q01DX009 (ip), vehicle: saline with Tween-80) was 93 % of control, the T/C (dose: 100.0 mg/kg/injection, schedule: Q04DX002 (ip), vehicle: saline with Tween-80) was 103 % of control and the T/C (dose: 200.0 mg/kg/injection, schedule: Q01DX009 (ip), vehicle: saline with Tween-80) was 87 % of control. For the same compound, the T/C (dose: 200.0 mg/kg/injection, schedule: Q04DX002 (ip), vehicle: saline with Tween-80) was 92 % of control, the T/C (dose: 400.0 mg/kg/injection, schedule: Q01DX009 (ip), vehicle: saline with Tween-80) was 90 % of control and the T/C (dose: 400.0 mg/kg/injection, schedule: Q04DX002 (ip), vehicle: saline with Tween-80) was 95 % of control.
With `CC(=O)OCC1OC(n2cnc([N+](=O)[O-])c2Br)C(OC(C)=O)C1OC(C)=O` (configuration not stated) the T/C (dose: 50.0 mg/kg/injection, schedule: Q01DX001 (ip), vehicle: saline) was 98 % of control, the T/C (dose: 100.0 mg/kg/injection, schedule: Q01DX001 (ip), vehicle: saline) was 98 % of control and the T/C (dose: 200.0 mg/kg/injection, schedule: Q01DX001 (ip), vehicle: saline) was 102 % of control. For the same compound, the T/C (dose: 400.0 mg/kg/injection, schedule: Q01DX001 (ip), vehicle: saline) was 102 % of control.
For `CC(O)C[As](=O)(O)c1ccc(Cl)cc1` (configuration not stated), the T/C (dose: 25.0 mg/kg/injection, schedule: Q04DX003 (ip), vehicle: saline with Tween-80) was 94 % of control.
In the case of `CS(=O)(=O)C1(S(C)(=O)=O)Cc2ccccc2C1`, the T/C [1] was 91 % of control, the T/C [2] was 92 % of control and the T/C [3] was 100 % of control.
In the case of `CCOC(=O)c1cnc(SC)nc1Nc1c(Cl)cccc1Cl`, the T/C [1] was 96 % of control, the T/C [2] was 94 % of control and the T/C [3] was 94 % of control.
In the case of `O=C1c2ccccc2C(=O)c2c1ccc1nc(Cl)c(=O)[nH]c21`, the T/C [4] was 93 % of control, the T/C [5] was 95 % of control and the T/C [6] was 100 % of control.
`COC1OC2COc3ccccc3OC2C(NC(C)=O)C1O` (configuration not stated) was tested, and the T/C (dose: 100.0 mg/kg/injection, schedule: Q01DX009 (ip), vehicle: other) was 96 % of control, the T/C (dose: 200.0 mg/kg/injection, schedule: Q01DX009 (ip), vehicle: other) was 89 % of control and the T/C (dose: 400.0 mg/kg/injection, schedule: Q01DX009 (ip), vehicle: other) was 94 % of control.
In the case of `O=C(Nc1ccc(F)cc1)c1ccc([N+](=O)[O-])cc1`, the T/C [7] was 95 % of control, the T/C [8] was 95 % of control and the T/C [9] was 92 % of control.
In the case of `C(=NCC(CCN1CCCC1)(CCN1CCCC1)c1cccc2ccccc12)C(CCN1CCCC1)(CCN1CCCC1)c1cccc2ccccc12`, the T/C (dose: 5.0 mg/kg/injection, schedule: Q01DX009 (ip), vehicle: saline with Tween-80) was 106 % of control, the T/C (dose: 6.25 mg/kg/injection, schedule: Q04DX002 (ip), vehicle: saline) was 92 % of control and the T/C (dose: 10.0 mg/kg/injection, schedule: Q01DX009 (ip), vehicle: saline with Tween-80) was 106 % of control. For the same compound, the T/C (dose: 12.5 mg/kg/injection, schedule: Q04DX002 (ip), vehicle: saline) was 101 % of control.
With `COc1ccccc1CN1CCCOP1(=O)Nc1ccccc1` (configuration not stated) the T/C (dose: 50.0 mg/kg/injection, schedule: Q01DX001 (ip), vehicle: carboxymethylcellulose (CMC)) was 91 % of control, the T/C [4] was 91 % of control and the T/C [5] was 93 % of control. The T/C [6] was 93 % of control.
With `Nc1nc(N)c(CCCCc2ccccc2)c(Cc2ccccc2)n1` the T/C [10] was 98 % of control, the T/C [11] was 106 % of control and the T/C [12] was 98 % of control.
`CCOP(=O)(OCC)ON=C(Cl)Cl` was tested, and the T/C (dose: 0.78 mg/kg/injection, schedule: Q01DX009 (ip), vehicle: saline) was 97 % of control, the T/C (dose: 0.78 mg/kg/injection, schedule: Q04DX002 (ip), vehicle: saline) was 101 % of control and the T/C (dose: 1.56 mg/kg/injection, schedule: Q01DX009 (ip), vehicle: saline) was 97 % of control. The T/C (dose: 1.56 mg/kg/injection, schedule: Q04DX002 (ip), vehicle: saline) was 98 % of control, the T/C (dose: 3.12 mg/kg/injection, schedule: Q01DX009 (ip), vehicle: Klucel (hydroxypropylcellulose) (HPC)) was 95 % of control and the T/C (dose: 3.12 mg/kg/injection, schedule: Q01DX009 (ip), vehicle: saline) was 93 % of control. For the same compound, the T/C (dose: 3.12 mg/kg/injection, schedule: Q04DX002 (ip), vehicle: saline) was 101 % of control and 92 % of control, the T/C (dose: 4.6 mg/kg/injection, schedule: Q01DX009 (ip), vehicle: Klucel (hydroxypropylcellulose) (HPC)) was 105 % of control and the T/C (dose: 7.0 mg/kg/injection, schedule: Q01DX009 (ip), vehicle: Klucel (hydroxypropylcellulose) (HPC)) was 96 % of control.
In the case of `O=C(O)CCCCOc1ccc([N+](=O)[O-])cc1Cl`, the T/C [11] was 109 % of control and the T/C [12] was 103 % of control.
For `CCc1ccc(N=Nc2ccc(N)cc2)cc1`, the T/C [4] was 101 % of control, the T/C [5] was 89 % of control and the T/C [6] was 93 % of control.
`O=NN(CCCl)C(=O)NC1CCC(Cl)CC1` (configuration not stated) was tested, and the T/C (dose: 12.0 mg/kg/injection, schedule: Q01DX001 (ip), vehicle: Klucel (hydroxypropylcellulose) (HPC)) was 123 % of control, the T/C (dose: 21.0 mg/kg/injection, schedule: Q01DX001 (ip), vehicle: Klucel (hydroxypropylcellulose) (HPC)) was 217 % of control and the T/C (dose: 21.0 mg/kg/injection, schedule: Q01DX001 (ip), vehicle: carboxymethylcellulose (CMC)) was 182 % of control. The T/C (dose: 26.0 mg/kg/injection, schedule: Q01DX001 (ip), vehicle: Klucel (hydroxypropylcellulose) (HPC)) was 303 % of control, the T/C (dose: 34.0 mg/kg/injection, schedule: Q01DX001 (ip), vehicle: Klucel (hydroxypropylcellulose) (HPC)) was 387 % of control and the T/C (dose: 34.0 mg/kg/injection, schedule: Q01DX001 (ip), vehicle: carboxymethylcellulose (CMC)) was 346 % of control. For the same compound, the T/C (dose: 40.0 mg/kg/injection, schedule: Q01DX001 (ip), vehicle: Klucel (hydroxypropylcellulose) (HPC)) was 291 % of control, the T/C (dose: 49.0 mg/kg/injection, schedule: Q01DX001 (ip), vehicle: Klucel (hydroxypropylcellulose) (HPC)) was 460 % of control and the T/C (dose: 49.0 mg/kg/injection, schedule: Q01DX001 (ip), vehicle: carboxymethylcellulose (CMC)) was 469 % of control. The T/C (dose: 60.0 mg/kg/injection, schedule: Q01DX001 (ip), vehicle: Klucel (hydroxypropylcellulose) (HPC)) was 275 % of control, the T/C (dose: 74.0 mg/kg/injection, schedule: Q01DX001 (ip), vehicle: Klucel (hydroxypropylcellulose) (HPC)) was 439 % of control and the T/C (dose: 74.0 mg/kg/injection, schedule: Q01DX001 (ip), vehicle: carboxymethylcellulose (CMC)) was 469 % of control. For the same compound, the T/C (dose: 90.0 mg/kg/injection, schedule: Q01DX001 (ip), vehicle: Klucel (hydroxypropylcellulose) (HPC)) was 91 % of control, the T/C (dose: 110.0 mg/kg/injection, schedule: Q01DX001 (ip), vehicle: Klucel (hydroxypropylcellulose) (HPC)) was 218 % of control and the T/C (dose: 110.0 mg/kg/injection, schedule: Q01DX001 (ip), vehicle: carboxymethylcellulose (CMC)) was 153 % of control. For the same compound, the T/C (dose: 133.0 mg/kg/injection, schedule: Q01DX001 (ip), vehicle: Klucel (hydroxypropylcellulose) (HPC)) was 98 % of control.
For `O=C1NC2C1C1c3ccccc3C2C12CC2` (configuration not stated), the T/C [7] was 105 % of control, the T/C [8] was 97 % of control and the T/C [9] was 94 % of control.
In the case of `COc1ccc(S(=O)(=O)NC(=O)NCCC=C(C)C)cc1`, the T/C [10] was 100 % of control, the T/C [11] was 95 % of control and the T/C (dose: 100.0 mg/kg/injection, schedule: Q04DX003 (ip), vehicle: Klucel (hydroxypropylcellulose) (HPC)) was 106 % of control. The T/C [12] was 91 % of control, the T/C (dose: 200.0 mg/kg/injection, schedule: Q04DX003 (ip), vehicle: Klucel (hydroxypropylcellulose) (HPC)) was 97 % of control and the T/C (dose: 400.0 mg/kg/injection, schedule: Q04DX003 (ip), vehicle: Klucel (hydroxypropylcellulose) (HPC)) was 101 % of control.
With `COc1cc(CC(=O)O)c(Br)cc1C` the T/C (dose: 100.0 mg/kg/injection, schedule: Q01DX009 (ip), vehicle: saline) was 97 % of control, the T/C [1] was 101 % of control and the T/C (dose: 200.0 mg/kg/injection, schedule: Q01DX009 (ip), vehicle: saline) was 109 % of control. The T/C [2] was 104 % of control, the T/C (dose: 400.0 mg/kg/injection, schedule: Q01DX009 (ip), vehicle: saline) was 92 % of control and the T/C [3] was 108 % of control.
For `COc1cc(C)c2oc(C)nc2c1`, the T/C (dose: 100.0 mg/kg/injection, schedule: Q01DX001 (ip), vehicle: Klucel (hydroxypropylcellulose) (HPC)) was 92 % of control and the T/C (dose: 400.0 mg/kg/injection, schedule: Q01DX001 (ip), vehicle: Klucel (hydroxypropylcellulose) (HPC)) was 92 % of control.
